According to ChEMBL document CHEMBL5584268, “Dactylfungins and Tetralones: Bioactive Metabolites from a Nematode-Associated Laburnicola nematophila” (J Nat Prod, 2024):
≈ marks a conversion by molar mass, not a printed value. Calls of active or inactive are those of the source. No cut-off for these calls is given here.

Assays:
[1] = system: Rhodotorula glutinis; assay: Antimicrobial activity against Rhodotorula glutinis DSM 10134 up to 67 ug/ml measured after 72 hrs by serial dilution assay; assay type: functional, organism-based; conditions: dose <= 67.0 µg/ml
[2] = system: Staphylococcus aureus; assay: Antimicrobial activity against Staphylococcus aureus DSM 346 up to 67 ug/ml measured after 72 hrs by serial dilution assay; assay type: functional, organism-based; conditions: dose <= 67.0 µg/ml
[3] = system: Caenorhabditis elegans; assay: Nematicidal activity against Caenorhabditis elegans at 10 to 100 ug/ml incubated for 18 hrs by stereomicroscopic analysis; assay type: functional, organism-based; conditions: dose 10-100 µg/ml
[4] = system: KB 3-1; assay: Cytotoxicity against human KB-3-1 cells by MTT assay; assay type: functional, cell-based
[5] = system: L929; assay: Cytotoxicity against mouse L929 cells by MTT assay; assay type: toxicity, cell-based
[6] = system: Aspergillus fumigatus; assay: Antimicrobial activity against azole-resistant Aspergillus fumigatus CCF 6674 measured after 72 hrs by serial dilution assay; assay type: functional
[7] = system: Aspergillus fumigatus; assay: Antimicrobial activity against Aspergillus fumigatus ATCC 204305 measured after 72 hrs by serial dilution assay; assay type: functional
[8] = system: Mucor plumbeus; assay: Antimicrobial activity against Mucor plumbeus CCF 2612 up to 67 ug/ml measured after 48 hrs by serial dilution assay; assay type: functional, organism-based; conditions: dose <= 67.0 µg/ml
[9] = system: Aspergillus fumigatus; assay: Antimicrobial activity against Aspergillus fumigatus CCF 3522 measured after 48 hrs by serial dilution assay; assay type: functional
[10] = system: Candida albicans; assay: Antimicrobial activity against Candida albicans CCM 8215 up to 67 ug/ml measured after 12 hrs by serial dilution assay; assay type: functional, organism-based; conditions: dose <= 67.0 µg/ml
[11] = system: Cryptococcus neoformans; assay: Antimicrobial activity against Cryptococcus neoformans CCF 1081 measured after 48 hrs by serial dilution assay; assay type: functional
[12] = system: Aspergillus fumigatus; assay: Antimicrobial activity against azole-resistant Aspergillus fumigatus CCF 6651 measured after 72 hrs by serial dilution assay; assay type: functional
[13] = system: Staphylococcus aureus; assay: Antimicrobial activity against Staphylococcus aureus DSM 346 measured after 72 hrs by serial dilution assay; assay type: functional
[14] = system: Rhodotorula glutinis; assay: Antimicrobial activity against Rhodotorula glutinis DSM 10134 measured after 72 hrs by serial dilution assay; assay type: functional
[15] = system: Cryptococcus neoformans; assay: Antimicrobial activity against Cryptococcus neoformans CCF 1081 up to 67 ug/ml measured after 48 hrs by serial dilution assay; assay type: functional, organism-based; conditions: dose <= 67.0 µg/ml
[16] = system: Aspergillus fumigatus; assay: Antimicrobial activity against azole-resistant Aspergillus fumigatus CCF 6651 up to 67 ug/ml measured after 72 hrs by serial dilution assay; assay type: functional, organism-based; conditions: dose <= 67.0 µg/ml
[17] = system: Mucor plumbeus; assay: Antimicrobial activity against Mucor plumbeus CCF 2612 measured after 48 hrs by serial dilution assay; assay type: functional
[18] = system: Candida albicans; assay: Antimicrobial activity against Candida albicans CCM 8215 measured after 12 hrs by serial dilution assay; assay type: functional

Row | Compound | Activity [1] | Activity [2] | Activity [3] | Activity [4] | Activity [5] | MIC [6] [µg/mL] | MIC [7] [µg/mL] | MIC [11] [µg/mL] | MIC [12] [µg/mL] | further results
1 | COc1cc2c(c(O)c1/C=C/C(C)=O)C(=O)CC[C@H]2O | inactive | inactive | inactive | Active | Toxic |  |  |  |  | 
2 | CC[C@H](C)C[C@@H](C)/C=C(C)/C=C/C[C@H](C)[C@H](O)[C@@H](C)/C=C(C)/C=C/[C@H](O)C(C)(C)c1cc(O)c([C@H]2O[C@@H](CO)C[C@@H](O)[C@@H]2O)c(=O)o1 |  |  | inactive |  |  | 0.52 (≈ 0.787 µM) | 0.52 (≈ 0.787 µM) | 4.15 (≈ 6.28 µM) | 2.08 (≈ 3.15 µM) | Activity [8]: inactive; MIC [9]: 0.52 µg/mL (≈ 0.787 µM); Activity [10]: inactive; MIC [13]: 66.6 µg/mL (≈ 101 µM); MIC [14]: 8.3 µg/mL (≈ 12.6 µM)
3 | GENTAMICIN |  |  |  |  |  |  |  |  |  | MIC [13]: 0.21 µg/mL
4 | NYSTATIN |  |  |  |  |  |  |  |  |  | MIC [14]: 4.2 µg/mL
5 | COc1cc2c(c(O)c1Cc1c(O)c(O)c3cc(C)oc(=O)c3c1O)C(=O)CC[C@H]2O | inactive | inactive | inactive | Active | Toxic |  |  |  |  | 
6 | CC[C@H](C)[C@H](O)[C@@H](C)/C=C(C)/C=C/C[C@H](C)[C@H](O)[C@@H](C)/C=C(C)/C=C/[C@H](O)C(C)(C)c1cc(O)c([C@H]2O[C@@H](CO)C[C@@H](O)[C@@H]2O)c(=O)o1 | inactive | inactive | inactive |  |  | 16.6 (≈ 24.5 µM) | 0.26 (≈ 0.384 µM) |  |  | Activity [15]: inactive; Activity [16]: inactive; Activity [8]: inactive; Activity [10]: inactive
7 | CC[C@H](C)C[C@@H](C)/C=C(C)/C=C/C[C@H](C)[C@H](O)[C@@H](C)/C=C(C)/C=C/[C@H](O)[C@@H](C)c1cc(O)c([C@H]2O[C@@H](CO)C[C@@H](O)[C@@H]2O)c(=O)o1 |  |  |  |  |  | 0.52 (≈ 0.804 µM) | 8.32 (≈ 12.9 µM) | 4.15 (≈ 6.42 µM) | 0.52 (≈ 0.804 µM) | MIC [17]: 1.04 µg/mL (≈ 1.61 µM); MIC [18]: 8.3 µg/mL (≈ 12.8 µM)
8 | COc1cc2c(c(O)c1CO)C(=O)CC[C@H]2O | inactive | inactive | inactive | inactive | Non-Toxic |  |  |  |  | 
9 | C[C@@H]1[C@H](O)[C@@H](C)/C=C/C=C/C=C/C=C/C=C/C=C/C=C/[C@H](O[C@@H]2O[C@H](C)[C@@H](O)[C@H](N)[C@@H]2O)C[C@@H]2O[C@](O)(C[C@@H](O)C[C@@H](O)[C@H](O)CC[C@@H](O)C[C@@H](O)CC(=O)O[C@H]1C)C[C@H](O)[C@H]2C(=O)O [AMPHOTERICIN B] |  |  |  |  |  | 2.5 (≈ 2.71 µM) | 0.31 (≈ 0.335 µM) | 2.5 (≈ 2.71 µM) | 0.16 (≈ 0.173 µM) | MIC [17]: 0.31 µg/mL (≈ 0.335 µM); MIC [9]: 0.31 µg/mL (≈ 0.335 µM)
